The results in this text go back to US10968193B2, “Antidiabetic bicyclic compounds” (Merck Sharp & Dohme Corp., priority 2014, dated 2021).

The experiment addresses T1, human GPR40 (Homo sapiens, UniProt O14842).
T1 construct: expressed in transfected cells; host or cells: HEK cells stably expressing the aequorin reporter
Kind of experiment: Inositol Phosphate Turnover (IP1) Assay 2. To be noted: HEK cells stably expressing human GPR40; 15,000 cells per well; compound acoustically transferred; CisBio IP-One kit. It is filed as cell-based. The protocol:
Human and mouse GPR40 stable cell-lines were generated in CHO cells stably expressing NFAT BLA (Beta-lactamase). A human GPR40 stable cell-line was generated in HEK cells stably expressing the aequorin expressing reporter. The expression plasmids were transfected using lipofectamine (Life Technologies) following manufacturer's instructions. Stable cell-lines were generated following drug selection.
Inositol Phosphate Turnover (IP1) Assay 2:
The assay was performed in 384-well format. HEK cells stably expressing human GPR40 were plated at 15,000 cells per well in growth medium (DMEM/10% fetal calf serum). Cell plates were then incubated 16 hours at 37 degrees in a 5% CO2 incubator.
Measurement of Inositol Phosphate Turnover (IP1) was performed using the CisBio IP-One kit (Part number 62IPAPEB). After the 16 hour incubation, the cells were washed with HEPES buffer and 10 ul of stimulation buffer (prepared as described in the kit) was added to each well. In a separate plate, compounds were diluted in DMSO (400-fold over the final concentration in the assay well) and 25 nl was acoustically transferred to the appropriate well in the assay cell plate. The plates were then incubated for 60 minutes at 37 degrees. 10 ul of detection buffer (also prepared as described in the IP-One kit) was added to each well and the plates were incubated for 60 minutes in the dark. The plates were then read in a Perkin Elmer EnVision or equivalent reader able to measure FRET. Fluorescent ratio of emission at 665 and 620 nm was then converted to IP1 concentration by back calculating from an IP1 standard curve prepared at the time of the assay.

T1 sequence (O14842 whole entry): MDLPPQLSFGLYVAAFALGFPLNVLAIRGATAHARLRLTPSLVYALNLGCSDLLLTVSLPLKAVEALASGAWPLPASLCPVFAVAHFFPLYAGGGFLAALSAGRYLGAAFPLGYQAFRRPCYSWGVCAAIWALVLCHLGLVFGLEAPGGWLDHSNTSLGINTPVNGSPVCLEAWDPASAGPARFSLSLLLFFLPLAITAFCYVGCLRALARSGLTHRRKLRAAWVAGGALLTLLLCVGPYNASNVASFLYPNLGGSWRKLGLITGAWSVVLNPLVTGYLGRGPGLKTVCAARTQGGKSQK

The compound `COc1cc(-c2ccc(C3CCc4ccc([C@H](C5CC5)[C@H](C)C(=O)O)cc4O3)cc2CN2CCC(F)(F)C2)c(F)cn1` (mixture of isomers) [Example 17] registered an EC50 of 0.7 nM.

In turn, `COC[C@H]1CCCN1Cc1cc([C@H]2CCc3ccc([C@H](C4CC4)[C@H](C)C(=O)O)cc3O2)ccc1-c1cc(OC)ncc1F` [Example 163] showed an EC50 of 3.3 nM.

`COc1cc(-c2ccc(C3CCc4ccc([C@H](C5CC5)[C@H](C)C(=O)O)cc4O3)cc2CN2CC[C@@H](F)C2)c(F)cn1` (single isomer, unassigned) [Example 23] gave an EC50 of 1.7 nM.

`COc1cc(-c2ncc([C@@H]3CCc4ccc([C@H](C5CC5)[C@H](C)C(=O)O)cc4O3)nc2CN2CCCC2)c(F)cn1` (single isomer, unassigned) [Example 110a] gave an EC50 of 446 nM.

In turn, `COc1cc(-c2ccc(C3CCc4ccc([C@H](C5CC5)[C@H](C)C(=O)O)cc4O3)cc2CN2CCOCC2)c(F)cn1` (single isomer, unassigned) [Example 11b] displayed a half-maximal effective concentration (EC50) of 2.4 nM.

The compound `COc1cc(-c2ccc(C3CCc4ccc([C@H](C5CC5)[C@H](C)C(=O)O)cc4O3)cc2CN2CCNCC2)c(F)cn1` (mixture of isomers) [Example 33] gave an EC50 of 573 nM.

`COc1cc(-c2ccc(C3CCc4ccc([C@H](C5CC5)[C@H](C)C(=O)O)cc4O3)cc2CN2C3CCC2CC(OC)C3)c(F)cn1` (stereo partly shown) [Example 37]: the EC50 turned out to be 4.7 nM.

`COc1cc(-c2ccc(C3CCc4ccc([C@H](C5CCC5)[C@H](C)C(=O)O)cc4O3)cc2CN2CCCC2)c(F)cn1` (single isomer, unassigned) [Example 93] came in with an EC50 of 2.9 nM.

In the case of `COc1cc(-c2ccc(C3CCc4ccc([C@H](C5CC5)[C@H](C)C(=O)O)cc4O3)cc2CN(C)C)c(F)cn1` (single isomer, unassigned) [Example 1a], the EC50 is 2.3 nM.

Consider `COc1cc(-c2ccc([C@H]3CCc4ccc([C@H](C5CC5)[C@H](C)C(=O)O)cc4O3)cc2CN2[C@H](C)CC[C@H]2C)c(F)cn1` [Example 147], for which the EC50 was found to be 0.7 nM.

`COc1cc(-c2ccc(C3CCc4ccc([C@H](C5CC5)[C@H](C)C(=O)O)cc4O3)cc2CN2CC[C@H](OC)C2)c(F)cn1` (stereo partly shown) [Example 19] came in with an EC50 of 6.4 nM.

On to `CNCc1cc([C@@H]2CCc3ccc([C@H](C4CC4)[C@H](C)C(=O)O)cc3O2)ccc1-c1cc(OC)ncc1F` [Example 34, Sodium (2S,3R)-3-cyclopropyl-3-((S)-2-(4-(5-fluoro-2-methoxypyridin-4-yl)-3-((methylamino)methyl)phenyl)chroman-7-yl)-2-methylpropanoate], for which the EC50 amounted to 1.9 nM.

`COc1cc(-c2ccc(C3CCc4ccc([C@H](C5CC5)[C@H](C)C(=O)O)cc4O3)cc2CN2CC[C@H](C(F)(F)F)C2)c(F)cn1` (single isomer, unassigned) [Example 29] returned an EC50 of 0.8 nM.

The compound `COc1cc(-c2ccc([C@H]3CCc4ccc([C@H](C5CC5)[C@H](C)C(=O)O)cc4O3)cc2[C@@H](C)N(C)C)c(F)cn1` [Example 81, (2S,3R)-3-cyclopropyl-3-((R)-2-(3-((R)-1-(dimethylamino)ethyl)-4-(5-fluoro-2-methoxypyridin-4-yl)phenyl)chroman-7-yl)-2-methylpropanoic acid] came in with an EC50 of 4 nM.

In turn, `COc1cc(-c2ccc([C@@H]3CCc4ccc([C@H](C5CC5)[C@H](C)C(=O)O)cc4O3)cc2CN2[C@H](C)CC[C@H]2C)c(F)cn1` [Example 161] came in with an EC50 of 0.6 nM.

On to `COc1cc(-c2ccc(C3CCc4ccc([C@H](C5CC5)[C@H](C)C(=O)O)cc4O3)cc2CN2C3CCC2CC3)c(F)cn1` (stereo partly shown) [Example 69], for which the EC50 came to 2.6 nM.

Compound `COc1cc(-c2ccc(C3CCc4ccc([C@H](C5CC5)[C@H](C)C(=O)O)cc4O3)cc2CN2CC(C)(OC)C2)c(F)cn1` (mixture of isomers) [Example 73] came in with an EC50 of 8.2 nM.

`COc1cc(-c2ccc(C3CCc4ccc([C@H](C5CC5)[C@H](C)C(=O)O)cc4O3)cc2CN2CCC(C(F)(F)F)C2)c(F)cn1` (stereo partly shown) [Example 14] displayed an EC50 of 0.87 nM.

Regarding `COc1cc(-c2ccc(C3CCc4ccc([C@H](C5CC5)[C@H](C)C(=O)O)cc4O3)cc2CN2CCC3(CCO3)C2)c(F)cn1` (stereo partly shown) [Example 54], the half-maximal effective concentration (EC50) stood at 13 nM.

Take `COc1cc(-c2ccc([C@H]3CCc4ccc([C@H](C5CC5)[C@H](C)C(=O)O)cc4O3)cc2[C@H](C)N(C)C)c(F)cn1` [Example 80, (2S,3R)-3-cyclopropyl-3-((R)-2-(3-((S)-1-(dimethylamino)ethyl)-4-(5-fluoro-2-methoxypyridin-4-yl)phenyl)chroman-7-yl)-2-methylpropanoic acid]: the EC50 came to 11 nM.

On to `CCOc1cc(-c2ccc(C3CCc4ccc([C@H](C5CC5)[C@H](C)C(=O)O)cc4O3)cc2CN(CC)CC)c(F)cn1` (mixture of isomers) [Example 76], for which a half-maximal effect (EC50) was put at 8.2 nM.

With `COc1cc(-c2ccc(C3CCc4ccc([C@H](C5CC5)[C@H](C)C(=O)O)cc4O3)cc2CN2CCCCC2)c(F)cn1` (mixture of isomers) [Example 63], the EC50 is 2.3 nM.

`COc1cc(-c2ccc([C@H]3CCc4ccc([C@H](C5CC5)[C@H](C)C(=O)O)cc4O3)cc2CN2CCCCC2)c(F)cn1` [Example 165] yielded an EC50 of 3.9 nM.

In the case of `COC[C@@H]1CCCN1Cc1cc([C@H]2CCc3ccc([C@H](C4CC4)[C@H](C)C(=O)O)cc3O2)ccc1-c1cc(OC)ncc1F` [Example 135], the EC50 was found to be 5 nM.

On to `COc1cc(-c2ccc([C@H]3CCc4ccc([C@H](C5CC5)[C@H](C)C(=O)O)cc4O3)cc2[C@H](C)N(C)C)c(F)cn1` [Example 82, (2S,3R)-3-cyclopropyl-3-((R)-2-(3-((S)-1-(dimethylamino)ethyl)-4-(5-fluoro-2-methoxypyridin-4-yl)phenyl)chroman-7-yl)-2-methylpropanoic acid], for which the EC50 came out at 13 nM.

The compound `COc1cc(-c2ccc([C@H]3CCc4ccc([C@H](C5CC5)[C@H](C)C(=O)O)cc4O3)cc2CN2CCCC2(C)C)c(F)cn1` [Example 146] gave an EC50 of 1.8 nM.

As for `COc1cc(-c2ccc(C3CCc4ccc([C@H](C5CC5)[C@H](C)C(=O)O)cc4O3)cc2CN2CCN(C)CC2)c(F)cn1` (mixture of isomers) [Example 13, (2S,3R)-3-cyclopropyl-3-(2-(4-(5-fluoro-2-methoxypyridin-4-yl)-3-(4-methylpiperazin-1-yl)methylphenyl)chroman-7-yl)-2-methylpropanoic acid], the EC50 came to 210 nM.

In the case of `COc1cc(-c2ccc([C@H]3CCc4ccc([C@H](C5CC5)[C@H](C)C(=O)O)cc4O3)cc2CNCC(F)(F)F)c(F)cn1` [Example 149], the EC50 was 2.5 nM.

In turn, `CCOc1cc(-c2ccc(C3CCc4ccc([C@H](C5CC5)[C@H](C)C(=O)O)cc4O3)cc2CN2CCCC2)c(F)cn1` (stereo partly shown) [Example 77] yielded an EC50 of 29 nM.

Compound `COC[C@@H]1CCCN1Cc1cc([C@@H]2CCc3ccc([C@H](C4CC4)[C@H](C)C(=O)O)cc3O2)ccc1-c1cc(OC)ncc1F` [Example 134, (2S, 3R)-3-cyclopropyl-3-((S)-2-(4-(5-fluoro-2-methoxypyridin-4-yl)-3-(((S)-2-(methoxymethyl)pyrrolidin-1-yl)methyl)phenyl)chroman-7-yl)-2-methylpropanoic acid] had an EC50 of 0.8 nM.

In turn, `COc1cc(-c2ccc([C@H]3CCc4ccc([C@H](C5CC5)[C@H](C)C(=O)O)cc4O3)cc2CN2CCCC[C@H]2C)c(F)cn1` [Example 167] came in with an EC50 of 2.2 nM.

The compound `COc1cc(-c2ccc(C3CCc4ccc([C@H](C5CC5)[C@H](C)C(=O)O)cc4O3)cc2CN2CCOC[C@@H]2C)c(F)cn1` (stereo partly shown) [Example 51] yielded an EC50 of 1 nM.

In turn, `COc1cc(-c2ccc(C3CCc4ccc([C@H](C5CC5)[C@H](C)C(=O)O)cc4O3)cc2CN2CC(C)(C#N)C2)c(F)cn1` (mixture of isomers) [Example 67] showed an EC50 of 15 nM.

In turn, `COc1cc(-c2ccc(C3CCc4ccc([C@H](C5CC5)[C@H](C)C(=O)O)cc4O3)cc2CN2CCC3(CCCO3)C2)c(F)cn1` (stereo partly shown) [Example 41] gave an EC50 of 13 nM.

The compound `COc1cc(-c2ccc([C@@H]3CCc4ccc([C@H](C5CC5)[C@H](C)C(=O)O)cc4O3)cc2CN2CCCC[C@H]2C)c(F)cn1` [Example 153] came in with an EC50 of 1.1 nM.

With `COc1cc(-c2ccc(C3CCc4ccc([C@H](C5CC5)[C@H](C)C(=O)O)cc4O3)cc2CN(C)C2CC2)c(F)cn1` (mixture of isomers) [Example 57], the EC50 worked out at 0.18 nM.

On to `COc1cc(-c2ccc(C3CCc4ccc([C@H](C5CC5)[C@H](C)C(=O)O)cc4O3)cc2CN2CCC[C@H]2C)c(F)cn1` (stereo partly shown) [Example 50], for which a half-maximal effect (EC50) was put at 1.3 nM.

Take `COc1cc(-c2ccc(C3CCc4ccc([C@H](C5CC5)[C@H](C)C(=O)O)cc4O3)cc2CN2CC[C@@H](O)C2)c(F)cn1` (stereo partly shown) [Example 8]: the 50% effective concentration (EC50) is 238 nM.

Turning to `COc1cc(-c2ccc([C@@H]3CCc4ccc([C@H](C5CC5)[C@H](C)C(=O)O)cc4O3)cc2CN2CCC2(C)C)c(F)cn1` [Example 157], the EC50 was determined as 4.2 nM.

As for `COC[C@H]1CCCN1Cc1cc(C2CCc3ccc([C@H](C4CC4)[C@H](C)C(=O)O)cc3O2)ccc1-c1cc(OC)ncc1F` (stereo partly shown) [Example 44], the response was half-maximal at 1.8 nM (EC50).
